According to patent publication US5079257A, “Indoloquinone compounds” (priority 1986, dated 1992):
In brackets after ≈: the same amount, converted by molar mass. Where two headings read alike, the source gives them in different places.

Key:
[1] = test system: IgR37 cells melanoma; assay: In vitro panel of human tumour lines (TNO): IgR-37; format: cell-based; conditions: about 72 hours; also: key: -: no inhibition of cell growth; +: total cell-kill
Protocol: (§1) Compounds E.O. 1, E.O. 2, E.O. 4, E.O. 4A, E.O. 8, E.O. 9, […], E.O. 33, and E.O. 35 were tested for their activity against five human tumour cell lines at the Radiobiological Institute TNO Rijswijk.
(§2) The new in vitro prescreen uses human tumour clones; it was set up by Dr. P. Lelieveld at TNO Rijswijk and comprises testing compounds in a bioliquid assay for their cytostatic activity against the following five human tumour lines:
(§3) After a continuous exposure to the drugs to be tested and to Adriamycin in `24 well tissue culture clusters, type 3524 (Costar)`, the remaining cells are fixed and stained. Using increasing drug concentrations the inhibiting concentration can be estimated qualitatively.
(§4) Cells: the human tumour cells are maintained in Dulbecco's medium supplemented with 10 percent foetal calf serum.
(§5) A, T and Z cell suspensions: 5·10^4 cells/ml
(§6) The cells were grafted into 16 mm wells for 48 hours (0.5 ml cell suspension per well was used).
(§7) Drugs: the compound to be tested was dissolved in appropriate concentrations in a mixture of Hepes-buffered Hanks' balanced salt solution and ethanol. The drug solutions (0.05 ml) were added to the different wells. The final ethanol concentration in each well was less than one percent.
(§8) The cells were continuously incubated with the compound under test at 37° in an atmosphere of 10 percent CO2 in humidified air for about 72 hours.
(§9) Determination of the inhibiting dose: the cells were fixed and stained with a solution of crystal violet in methanol/formaldehyde.

[2] = test system: MCF7 breast cancer cells; assay: In vitro panel of human tumour lines (TNO): MCF-7; format: cell-based; conditions: about 72 hours; also: key: -: no inhibition of cell growth; +: total cell-kill
Protocol: as §1, §2, §3, §4
(§10) M and W cell suspensions: 10^5 cells/ml.
as §6, §7, §8, §9

[3] = test system: A 204 cells; rhabdomyosarcoma; assay: In vitro panel of human tumour lines (TNO): A 204; format: cell-based; conditions: about 72 hours; also: key: -: no inhibition of cell growth; +: total cell-kill
Protocol: as §1, §2, §3, §4, §5, §6, §7, §8, §9

[4] = test system: WiDr cells; colon tumour; assay: In vitro panel of human tumour lines (TNO): WiDr; format: cell-based; conditions: about 72 hours; also: key: -: no inhibition of cell growth; +: total cell-kill
Protocol: as §1, §2, §3, §4, §10, §6, §7, §8, §9

[5] = test system: T 24 cells; bladder carcinoma; assay: In vitro panel of human tumour lines (TNO): T 24; format: cell-based; conditions: about 72 hours; also: key: -: no inhibition of cell growth; +: total cell-kill
Protocol: as §1, §2, §3, §4, §5, §6, §7, §8, §9

[6] = test system: L1210 cells; assay: L1210 activity (bioliquid assay), cytotoxicity; format: cell-based; conditions: Mus musculus
Text: The indoloquinones II (formula II) have been tested in respect of their cytotoxic activity against L1210 cells and R-1 cells (Rhabdomyosarcoma Cells) in a bioliquid assay at the department of oncology of the Free University of Amsterdam (Table I). In addition to this seven compounds (E.O. 1, E.O. 2, E.O. 4, E.O. 7, E.O. 9, E.O. 16 and E.O. 17) have been tested on L1210 activity in a clonogenic assay at TNO, Rijswijk. Further, the lowest active doses of the compounds E.O. 1, E.O. 2, E.O. 4 and E.O. 9 have been determined at TNO Rijswijk, according to the method described by Lamberts et al. [Oncology, 40, 301 (1983)]. (Table II). Eight indoloquinones (E.O. 1, E.O. 2, E.O. 4, E.O. 4A, E.O. 8, E.O. 9, E.O. 33 and E.O. 35) have been tested in a panel of five human tumour lines (TNO Rijswijk; Table III). From the latter group three indoloquinones (E.O. 1, E.O. 4 and E.O. 9) have been selected for a cytotoxicity study, involving five slowly growing human tumour lines (University of Freiburg; Table IV).
For this purpose, L1210 cells were grown, as suspension, in Falcon multi-wells (growth area: 9.6 cm^2) using RPMI supplemented with 15% FCS and 2-mercapto-ethanol (60 μmol) as medium. In this medium, the cells were continuously incubated with the compound to be tested at 37° C. in an atmosphere of 5% CO2 in humidified air for 48 hours. Thereupon they were counted on a Sysmex microcell counter (CC110).
(§11) The in vitro L1210 and R-1 activities of the indoloquinones (formula III), were also determined in the bioliquid assays as described above.

[7] = test system: R-1 cells (Rhabdomyosarcoma Cells); assay: R-1 activity (bioliquid assay), cytotoxicity; format: cell-based; conditions: Rhabdomyosarcoma cell
Text: The indoloquinones II (formula II) have been tested in respect of their cytotoxic activity against L1210 cells and R-1 cells (Rhabdomyosarcoma Cells) in a bioliquid assay at the department of oncology of the Free University of Amsterdam (Table I). […] (Table II). Eight indoloquinones (E.O. 1, E.O. 2, E.O. 4, E.O. 4A, E.O. 8, E.O. 9, E.O. 33 and E.O. 35) have been tested in a panel of five human tumour lines (TNO Rijswijk; Table III).
For the determination of the R-1 activity, Rhabdomyosarcoma cells were brought into Falcon multiwells (growth area: 9.6 cm^2) (~10^6 cells per dish) containing 3 ml of Dulbecco's medium supplemented with 10% Foeto Calf Serum (FCS). […] Thereupon the drug solution was removed and the cells were covered with fresh medium. After 48 hours the cells were trypsinized and counted on a Sysmex microcell counter (CC110).
as §11

[8] = Half-wave reduction potentials / polarography (University of Utrecht); format: physicochemical; conditions: Table IA; only the first (quinone) reduction potential
Text: *The halve wave reduction potentials (E1/2) have been determined at the
Pharmaceutical Laboratory of University of Utrecht. Only the first
(quinone) reduction potential has been given.
Additional evidence for the occurrence of a bioreductive activation mechanism during the cytotoxic action of indoloquinones (II) was obtained via electrochemical studies, which have been carried out at the Pharmaceutical Laboratory of the University of Utrecht. […]

[9] = L1210, 48 h, Table IA, para-indoloquinone diesters, read-out: ID-50 L1210
[10] = Table IA, para-indoloquinone diesters, read-out: ID-50 R-1

| Compound | in vitro activity score, IgR-37 ([1]; 0.01 μg/ml) | in vitro activity score, IgR-37 ([1]; 0.1 μg/ml) | in vitro activity score, MCF-7 ([2]; 1.0 μg/ml) | in vitro activity score, WiDr ([4]; 0.01 μg/ml) | in vitro activity score, WiDr ([4]; 0.1 μg/ml) | in vitro activity score, WiDr ([4]; 1.0 μg/ml) | in vitro activity score, T 24 ([5]; 0.01 μg/ml) | in vitro activity score, T 24 ([5]; 0.1 μg/ml) | E1/2, halve wave reduction potential [8] [mV] | further results |
| --- | --- | --- | --- | --- | --- | --- | --- | --- | --- | --- |
| N.N.[Cl][Pt][Cl] [Cisplatin, reference compound] | - | - | - | - | - | - | - | - |  | in vitro activity score, IgR-37 ([1]; 10 μg/ml): +; in vitro activity score, MCF-7 ([2]; 0.01 μg/ml): -; in vitro activity score, MCF-7 ([2]; 0.1 μg/ml): -; in vitro activity score, A 204 ([3]; 0.01 μg/ml): -; in vitro activity score, A 204 ([3]; 0.1 μg/ml): -; in vitro activity score, A 204 ([3]; 10 μg/ml): +; in vitro activity score, WiDr ([4]; 10 μg/ml): +; in vitro activity score, T 24 ([5]; 10 μg/ml): + |
| COC(=O)/C=C/c1c(C(=O)OC)c2c(n1C)C(=O)C=C(OC)C2=O [E.O. 14, Methyl 5-methoxy-3-methoxycarbonyl-1-methyl-2-[1H-indole-4,7-dione]acrylate] |  |  |  |  |  |  |  |  | -243 | IC50 [6, 9]: 0.8 µg/mL (≈ 2.4 µM); IC50 [7, 10]: > 10 µg/mL |
| COC(=O)/C=C/c1c(C(=O)OC)c2c(n1C)C(=O)C=C(N1CC1C)C2=O (stereo not drawn) [E.O. 28, Methyl 3-methoxycarbonyl-1-methyl-5-propyleneamino-2-[1H-indole-4,7-dione]acrylate] |  |  |  |  |  |  |  |  | -171 | IC50 ([6]; L1210, 48 h, read-out: ID-50 L1210, Table IA, para-indoloquinone diesters): 2.2 µg/mL (≈ 6.14 µM); IC50 ([7]; read-out: ID-50 R-1, Table IA, para-indoloquinone diesters): 5.7 µg/mL (≈ 15.9 µM) |
| CCC1(O)CC2CN(CCc3c([nH]c4ccccc34)C(C(=O)OC)(c3cc4c(cc3OC)N(C=O)C3C(O)(C(=O)OC)C(OC(C)=O)C5(CC)C=CCN6CCC43C65)C2)C1 (stereo not drawn) [Vincrist., reference compound] | + | + |  | + | + |  | - | + |  |  |
| COC1=C(C)C(=O)c2c(c(COC(C)=O)c(/C=C/COC(C)=O)n2C)C1=O [E.O. 33, 3-Acetoxymethyl-1,6-dimethyl-5-methoxy-2-[1H-indole-4,7-dione]prop-β-en-α-yl acetate] | - | - | - | - | - | - | - | - |  | in vitro activity score, IgR-37 ([1]; 1.0 μg/ml): -; in vitro activity score, IgR-37 ([1]; 10 μg/ml): +; in vitro activity score, MCF-7 ([2]; 0.01 μg/ml): -; in vitro activity score, MCF-7 ([2]; 0.1 μg/ml): -; in vitro activity score, A 204 ([3]; 0.01 μg/ml): -; in vitro activity score, A 204 ([3]; 0.1 μg/ml): -; in vitro activity score, A 204 ([3]; 1.0 μg/ml): -; in vitro activity score, A 204 ([3]; 10 μg/ml): +; IC50 ([6]; L1210, Table I, bioliquid assay, 48 hours, read-out: ID-50 L1210): 3.6 µg/mL; in vitro activity score, T 24 ([5]; 1.0 μg/ml): -; in vitro activity score, T 24 ([5]; 10 μg/ml): +; IC50 ([7]; Table I, bioliquid assay, read-out: ID-50 R-1): 2.2 µg/mL |
| CCC1(O)CC2CN(CCc3c([nH]c4ccccc34)C(C(=O)OC)(c3cc4c(cc3OC)N(C)C3C(O)(C(=O)OC)C(OC(C)=O)C5(CC)C=CCN6CCC43C65)C2)C1 (stereo not drawn) [Vinblast., reference compound] | + | + | + | + | + | + |  | + |  | in vitro activity score, MCF-7 ([2]; 10 μg/ml): +; in vitro activity score, WiDr ([4]; 10 μg/ml): + |
| COC(=O)/C=C/c1c(C(=O)OC)c2c(n1C)C(=O)C=C(O)C2=O [E.O. 24, Methyl 5-hydroxy-3-methoxycarbonyl-1-methyl-2-[1H-indole-4,7-dione]acrylate] |  |  |  |  |  |  |  |  | -299 | IC50 [6, 9]: > 10 µg/mL; IC50 [7, 10]: > 10 µg/mL |
